# According to publication PMC5177912, “Glycosides from edible sea cucumbers stimulate macrophages via purinergic receptors” (Scientific Reports, 2016):
# Where a name gives a salt, the structure may show the parent alone.
# Target: T1, P2X4 receptor (recombinant mouse P2X4 purinoceptor) (Mus musculus, UniProt Q9JJX6)
# T1 construct: gene P2rx4; the complete extracellular domain, N-terminal His-6 tag, expressed in E. coli
# T1 sequence (Q9JJX6 55-338): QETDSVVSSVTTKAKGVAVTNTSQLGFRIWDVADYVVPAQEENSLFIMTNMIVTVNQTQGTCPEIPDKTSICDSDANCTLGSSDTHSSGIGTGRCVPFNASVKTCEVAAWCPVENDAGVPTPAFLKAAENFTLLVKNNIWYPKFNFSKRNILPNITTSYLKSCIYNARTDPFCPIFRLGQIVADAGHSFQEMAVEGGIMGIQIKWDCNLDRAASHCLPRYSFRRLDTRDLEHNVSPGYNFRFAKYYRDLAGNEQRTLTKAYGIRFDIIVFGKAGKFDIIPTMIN
# Assay: SPR (Biacore T200, P2X4 immobilized on CM5 chip)
# Type: binding
smiles,measurement,value
"C=C(C)CCC[C@]1(C)OC(=O)[C@]23CCC4C(=CC[C@H]5C(C)(C)[C@@H](O[C@@H]6OC[C@@H](OS(=O)(=O)O)[C@H](O)[C@H]6O[C@@H]6O[C@H](C)[C@@H](O[C@@H]7O[C@H](CO)[C@@H](O)[C@H](O[C@@H]8O[C@H](CO)[C@@H](O)[C@H](OC)[C@H]8O)[C@H]7O)[C@H](O)[C@H]6O[C@@H]6OC[C@@H](O)[C@H](O)[C@H]6O)CC[C@]45C)[C@]2(C)CC(=O)[C@@H]31 (stereo partly drawn) [CA2-2, 3-O-{3-O-methyl-β-D-glucopyranosyl-(1→3)-β-D-glucopyranosyl-(1→4)-[β-D-xylopyranosyl-(1→2)]-β-D-quinovopyranosyl-(1→2)−4-O-sodium sulfate-β-D-xylopyranosyl}−16-keto-holosta-7,25-diene]",Kd,45.2 µM
